Source: patent US20220339122A1, “METHODS FOR THE TREATMENT OF DISEASES ASSOCIATED WITH DYSREGULATED ACTIVATION AND RECRUITMENT OF NEUTROPHILS” (Chang Gung University, priority 2021, published 2022)

Key:
[1] = tested on: human neutrophils; experiment: Neutrophil elastase (NE) release (degranulation); format: cell-based
Description: Human neutrophils (6×10^5 cells/mL) were incubated with DMSO or bletinib after treatment with 1 mM CaCl2 and 100 μM NE substrate (Methoxysuccinyl-Ala-Ala-Pro-Val-p-nitroanilide) at 37° C. for 5 min. Cells were stimulated with fMLF/0.5 μg mL^−1 CB, leukotriene B4 (LTB4)/2 μg mL^−1 CB, NaF/2 μg mL^−1 CB, or MMK-1/0.5 μg mL-1 CB for 10 min before determination of NE release by measuring the change of absorbance at 405 nm in a spectrophotometer.

[2] = tested on: p-SFKs Y416; experiment: Immunoblotting of neutrophil lysates, SFKs phosphorylation; format: cell-based, human; settings: 10 μM bletinib; 0.1 μM fMLF
Description: (§1) Neutrophils incubated with bletinib or DMSO at 37° C. for 5 min were stimulated with 0.1 μM fMLF for 30 s. The proteins were separated from neutrophil lysates through electrophoresis (12% sodium dodecyl sulphate-polyacrylamide gel electrophoresis) and then transferred to nitrocellulose membranes. The target proteins were identified through immunoblotting with specific antibodies against p38, p-p38, Akt, p-Akt S473, ERK, p-ERK, INK, p-JNK, Src, p-SFKs Y416, p-Src Y416, Lyn, p-Lyn (Y396), Fgr, p-Fgr (Y412), Hck, p-Hck (Y410), Btk, p-Btk Y223, Vav, and p-Vav (Y174) as well as with HRP-conjugated secondary anti-rabbit antibody (Cell Signaling Technology). The signal intensity was detected and quantified using the UVP BioSpectrum Imaging System (Analytik Jena, USA).

[3] = tested on: p-ERK; experiment: Immunoblotting of neutrophil lysates, ERK phosphorylation; format: cell-based, human; settings: 10 μM bletinib; 0.1 μM fMLF
Description: as §1

[4] = tested on: Hck (Y410); experiment: Immunoblotting of neutrophil lysates, Hck phosphorylation; format: cell-based, human; settings: 0.1 μM fMLF-stimulated neutrophils
Description: as §1

[5] = tested on: Akt (S473); experiment: Immunoblotting of neutrophil lysates, Akt phosphorylation; format: cell-based, human; settings: 10 μM bletinib; 0.1 μM fMLF
Description: as §1

[6] = biological target: Fgr (Homo sapiens, UniProt P09769); experiment: Cell-free ADP-Glo kinase assay, Fgr; format: biochemical; settings: 1-10 μM bletinib or 0.1-3 μM PP2; 125 μM ATP; concentration-dependent
Description: (§2) The kinase activity of SFKs was assessed using an ADP-Glo kinase assay kit (Promega, Fitchburg, USA) according to manufacturer instructions. […] The ADP-Glo reagent was used to end the kinase reaction and remove the remnant ATP; next, the kinase, which converted ADP to ATP, detection reagent was added and incubated for 30 min. Luciferin/luciferase luminescence was determined on an Infinite 200 Pro (Tecan, Switzerland).

[7] = biological target: Hck (Homo sapiens, UniProt P08631); experiment: Cell-free ADP-Glo kinase assay, Hck; format: biochemical; settings: 1-10 μM bletinib or 0.1-3 μM PP2; 125 μM ATP; concentration-dependent
Description: as §2

[8] = tested on: human neutrophils; experiment: Neutrophil migration, microchemotaxis chamber; format: cell-based
Description: A microchemotaxis chamber with 3-μm filters (Millipore) was used to evaluate chemotactic migration of neutrophils. Neutrophils (5×10^6 cells/mL) treated with bletinib or DMSO for 5 min were placed in the top chamber, and 0.1 μM fMLF was added into the bottom chamber. The number of neutrophils that migrated from the top to the bottom chamber after incubation at 5% CO2 for 1 h was counted on a MoxiZ automatic cell counter (ORFLO).

[9] = tested on: CD18 (integrin β2); experiment: Surface CD18 expression, flow cytometry; format: cell-based, human; settings: 1-10 μM bletinib; 0.1 μM fMLF/CB
Description: Neutrophils (5×10^5 cells/mL) were incubated with bletinib or DMSO for 5 min and then activated through incubation with 0.1 μM fMLF/1 μg/mL CB for 5 min. After centrifugation at 200×g for 8 min at 4° C., the cells were resuspended in 5% bovine serum albumin with FITC-conjugated antibodies against CD18 or CD11b on ice in the dark for 15 min. The fluorescent intensity was then analysed through fluorescence-activated cell sorting.

[10] = tested on: BALB/c mice; experiment: LPS-induced ALI model in mice; format: in vivo; settings: 25 mg/kg intraperitoneal
Description: A total of 24 male BALB/c mice were randomly divided into four groups (6 mice/group): vehicle alone, bletinib alone, LPS control, and bletinib treatment (bletinib+LPS). The mice were starved overnight and then intraperitoneally injected with 50 μL of bletinib (25 mg/kg) or 50 μL of vehicle (10% DMSO). ALI was induced through intratracheal spraying of 50 μL of LPS (from Escherichia coli O111:B4; 2 mg/kg) or 50 μL of 0.9% saline (in vehicle and bletinib alone group) under general anaesthesia with xylazine (6 mg/kg) and Zoletil 50 (30 mg/kg). Five hours later, mouse lungs were harvested after sacrifice and were frozen for myeloperoxidase (MPO) activity assay; they were also fixed with 10% formalin for histological sectioning and immunofluorescence staining.
The harvested lung tissues were washed with phosphate-buffered saline (PBS) and fixed with 10% formalin for 24 h. The samples were subsequently dehydrated, embedded with paraffin, sliced into 3-μm-thick sections with a microtome, and placed on glass slides. These sections were stained using haematoxylin and eosin (H&E) and corresponding antibodies. Then, images were acquired through light microscopy.
For immunofluorescence staining, tissue sections were incubated with antibodies against H3 (citH3; citrulline R2+R8+R17) and Ly6G at dilutions of 1:800 and 1:200, respectively. Anti-IgG secondary antibodies labelled with a fluorescent dye (Alexa Fluor 488 for citH3 or Alexa Fluor 568 for Ly6G) were used at dilutions of 1:1000 and 1:500, respectively. Immunofluorescence images were acquired through confocal microscopy (LSM 510 Meta, Zeiss).
The mouse lung tissues were suspended in a 0.5% hexadecyltrimethylammonium bromide buffer (pH 6.0) and then homogenised through sonication. To evaluate MPO activity, the MPO substrate buffer (containing PBS, 0.0005% hydrogen peroxide, and 0.2 mg/mL 0-dianisidine hydrochloride) was added to the homogenised tissue, and the light absorbance at 460 nm was detected by spectrophotometry, after which, MPO activity was calculated with reference to the standard curve of human MPO activity.

Sequence of Fgr (P09769 whole entry): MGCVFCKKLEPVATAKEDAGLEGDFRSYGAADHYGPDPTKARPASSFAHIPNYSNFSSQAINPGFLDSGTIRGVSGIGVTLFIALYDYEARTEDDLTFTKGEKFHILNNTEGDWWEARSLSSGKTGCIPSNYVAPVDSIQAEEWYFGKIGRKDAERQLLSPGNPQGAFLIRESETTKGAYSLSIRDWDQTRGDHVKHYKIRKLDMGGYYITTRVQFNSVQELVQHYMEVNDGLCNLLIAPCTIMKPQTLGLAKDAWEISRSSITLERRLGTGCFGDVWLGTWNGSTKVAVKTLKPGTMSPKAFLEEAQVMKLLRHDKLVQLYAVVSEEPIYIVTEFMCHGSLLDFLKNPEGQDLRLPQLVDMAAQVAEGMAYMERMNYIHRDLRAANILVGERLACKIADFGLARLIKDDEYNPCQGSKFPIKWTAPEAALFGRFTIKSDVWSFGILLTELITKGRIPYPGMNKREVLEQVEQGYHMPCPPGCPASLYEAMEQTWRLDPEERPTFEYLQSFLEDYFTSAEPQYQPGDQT
Sequence of Hck (P08631 whole entry): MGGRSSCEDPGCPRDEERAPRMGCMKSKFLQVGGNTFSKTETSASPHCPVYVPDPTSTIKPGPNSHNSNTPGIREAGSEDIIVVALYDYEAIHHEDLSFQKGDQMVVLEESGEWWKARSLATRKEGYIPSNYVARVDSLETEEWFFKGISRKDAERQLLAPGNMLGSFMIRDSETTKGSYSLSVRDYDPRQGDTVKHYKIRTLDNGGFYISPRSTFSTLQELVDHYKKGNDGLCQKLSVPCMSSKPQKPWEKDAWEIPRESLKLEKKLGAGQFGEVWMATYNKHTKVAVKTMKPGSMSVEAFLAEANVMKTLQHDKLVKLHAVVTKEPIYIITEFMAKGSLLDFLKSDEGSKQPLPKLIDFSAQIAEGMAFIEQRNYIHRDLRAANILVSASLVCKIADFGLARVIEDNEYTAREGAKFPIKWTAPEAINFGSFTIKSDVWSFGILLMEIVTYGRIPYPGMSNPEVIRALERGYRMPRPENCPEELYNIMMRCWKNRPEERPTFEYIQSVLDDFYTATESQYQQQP

SMILES: COc1cc(O)cc(CCc2c(Cc3ccc(O)cc3)ccc(O)c2Cc2ccc(O)cc2)c1 [bletinib, 3,3′-dihydroxy-2′,6′-bis(p-hydroxybenzyl)-5-methoxybibenzyl]
- IC50 ([1]; Homo sapiens, Neutrophil, fMLF/CB stimulation, read-out: release of NE in fMLF-stimulated human neutrophils, IC50): 530 ± 70 nM
- NE release from neutrophils stimulated with LTB4 ([1]; LTB4/CB, 0.1-10 μM bletinib, concentration-dependent): downregulated
- NE release from neutrophils stimulated with MMK-1 ([1]; MMK-1/CB, 0.1-10 μM bletinib, concentration-dependent): downregulated
- NE release from neutrophils stimulated with NaF ([1]; NaF/CB, 0.1-10 μM bletinib, concentration-dependent): downregulated
- phosphorylation of SFKs [2]: significantly inhibited
- phosphorylation of ERK [3]: significantly inhibited
- phosphorylation of Hck (Y410) [4]: significantly inhibited
- phosphorylation of Akt [5]: but not
- kinase activity of Fgr [6]: inhibited
- kinase activity of Hck [7]: inhibited
- fMLF-induced transwell migration of neutrophils ([8]; 1-10 μM bletinib, 0.1 μM fMLF): significantly reduced
- IL-8-induced neutrophil migration ([8]; IL-8, data not shown): inhibited
- expression of CD18 in fMLF-stimulated human neutrophils [9]: significantly attenuated
- MPO activity in the mouse lung tissues ([10]; 5 h after LPS spraying): significantly ameliorated
- total protein levels in the mouse lung tissues ([10]; 5 h after LPS spraying): significantly ameliorated
- LPS-activated phosphorylation of Vav (p-Vav) in lung sections ([10]; intratracheal LPS for 5 h): attenuated
- LPS-induced NET formation (Ly6G+citH3+ cell accumulation) in lung ([10]; intratracheal LPS for 5 h): considerably reduced
- distortion of the pulmonary architecture (lung histology) ([10]; intratracheal LPS for 5 h): significantly suppressed
